According to patent US20110263608A1, “16-KETO ASPERGILLIMIDES AND HARMFUL ORGANISM CONTROL AGENT COMPRISING THE SAME AS ACTIVE INGREDIENT” (Meiji Seika Pharma Co., Ltd., priority 2008, published 2011):
Where two headings read alike, the source gives them in different places.

How the values were obtained:
Format in all cases: in vivo
[1] = system: Haemaphysalis longicornis; assay: Tickcidal effect against Haemaphysalis longicornis (dry film in glass vial); details: 24 h, read-out: Death rate after one day
Procedure: Acetone solution (30 μl) of 200 ppm of compounds 1 to 9 and 20 ppm of compounds A and B was placed in 4 mL-volume glass vials. The vials were placed on a shaker, and a dry film of the compound was formed on the inner wall of the vials. The vials were dried for 24 hr or longer. Larva ticks of Haemaphysalis longicornis (10 heads) were released in the vials, and the vials were lidded.
(§1) Death rate (%)={number of dead larvae/(number of survived larvae+number of dead larvae)}×100

[2] = system: Frankliniella occidentalis; assay: Insecticidal effect against Frankliniella occidentalis (kidney bean leaf disk); details: 100 ppm, first instar larvae, six days after release
Procedure: (§2) A leaf disk having a diameter of 2.8 cm was cut out from kidney bean in pot culture, and a test solutions adjusted to a 100 ppm concentration (50% aqueous acetone solution; 0.05% Tween 20 added) were applied to the leaf disk. The leaf disk was then air dried, and first instar larvae were released and were then allowed to stand in a humidistat chamber (light period 16 hr—dark period 8 hr) (25° C.). […] The test was duplicated. Death rate (%)={number of dead larvae/(number of survived larvae+number of dead larvae)}×100

Aphis gossypii = assay: Insecticidal effect against Aphis gossypii (cucumber leaf disk); details: foliar, 72 h, read-out: insecticidal activity (death rate)
Procedure: as §2, with “2.0” for “2.8”, “a cucumber” for “kidney bean”, “and” for “and a”, “200” for “100”, “duplicated.” for “duplicated. Death rate (%)={number of dead larvae/(number of survived larvae+number of dead larvae)}×100”
as §1

Laodelphax striatellus = assay: Insecticidal effect against Laodelphax striatellus (root absorption, wheat seedlings); details: 72 h, read-out: insecticidal activity (death rate)
Procedure: A test solution (200 μl) adjusted to a 100 ppm concentration (10% aqueous acetone solution) was applied to the root of wheat seedlings in water culture. After the absorption of the test solution from the root for 3 days, 10 second instar larvae of Laodelphax striatellus were released, and the wheat seedlings were then allowed to stand in a humidistat chamber (light period 16 hr—dark period 8 hr) (25° C.). […] The test was duplicated.
as §1

[3] = Single oral administration acute toxicity against rat; details: female, Jcl: Wistar, in vivo, 2000 mg/kg, single oral administration
Procedure: (§3) Compound A was suspended at a concentration of 100 mg/mL using 0.5% methylcellulose. The test solution was forcibly orally administered to rats (Jcl: Wistar, female, 8 week olds) with a tube and a disposable syringe. The dose was 2000 mg/kg. […]

[4] = system: rats (Jcl: Wistar, female); assay: as above; details: single oral dose 2000 mg/kg, 15 days
Procedure: as §3

Ctenocephalides felis = assay: Fleacidal effect against Ctenocephalides felis (treated filter paper); details: 6.3 ppm acetone solution (200 μL) on filter paper, adults
Procedure: Acetone solution (200 μL) of 6.3 ppm of compound A was dropped on a filter paper having a diameter of 4.0 cm, and the filter paper was air-dried at room temperature to evaporate acetone. The chemical compound-treated filter paper was tightly fitted into a lid (diameter: 3.7 cm) for a 200-mL vial. About 25 adults of Ctenocephalides felis one to 3 days after adult eclosion were released in the 200 mL-volume vial, and the vial was then sealed by the vial lid with the chemical compound-treated filter paper fitted thereinto. The vial was inverted so that Ctenocephalides felis came into contact with the filter paper and, in this state, was left to stand. […] The test was triplicated.
as §1

[5] = system: Haemaphysalis longicornis; assay: Tickcidal effect against Haemaphysalis longicornis on body surface of mouse; details: larvae
Source text: Skin hair on the back of mice (ICR, male, 5 week olds) was clipped in a diameter of about 2 cm, and a 15-mL polystyrene conical tube cut to have a height of about 1.5 cm was bonded to the body surface of the mice with an instant adhesive.
as §1

[6] = 200 ppm acetone solution (30 μl), dry film, larva ticks, 25 C
[7] = 200 ppm, first instar larvae, three days after release
[8] = 100 ppm (200 μl) to root, second instar larvae, three days after release

| SMILES | pest or weed control at 200 µg/mL [1, 6] | pest or weed control at 200 ppm (Aphis gossypii; [7]) | pest or weed control at 100 ppm (Laodelphax striatellus; [8]) | pest or weed control at 200 µg/mL [1] | pest or weed control at 200 ppm (Aphis gossypii) | pest or weed control at 100 ppm (Laodelphax striatellus) | other results |
| --- | --- | --- | --- | --- | --- | --- | --- |
| COC1C[C@]2(C[C@@]34CN5C(=O)C[C@H](C)[C@]5(C[C@@H]3C2(C)C)C(=O)N4C)C(=O)N1C (some centres unmarked) [Compound 8] | 100% | ≥ 80% | 100% |  |  |  | insecticidal activity (death rate) [2]: not less than 80% |
| C[C@H]1CC(=O)N2C[C@]34C[C@]5(C[C@@H](O)N(C)C5=O)C(C)(C)[C@H]3C[C@]12C(=O)N4C [Compound 1] |  |  |  | 80% | ≥ 80% | 100% |  |
| C[C@H]1CC(=O)N2C[C@]34C[C@@]5(C(=O)N(C)C6OC65)C(C)(C)[C@@H]3C[C@]12C(=O)N4C (some centres unmarked) [Compound 6] |  |  |  | 100% | ≥ 80% | 100% |  |
| C[C@H]1CC(=O)N2C[C@]34C[C@@]5(C(=O)N(C)C(=O)C5O)C(C)(C)[C@@H]3C[C@]12C(=O)N4C (some centres unmarked) [Compound 7] | 100% | ≥ 80% | 100% |  |  |  |  |
| CC(=O)O[C@@H]1C[C@]2(C[C@@]34CN5C(=O)C[C@H](C)[C@]5(C[C@@H]3C2(C)C)C(=O)N4C)C(=O)N1C [Compound 2] | 100% | ≥ 80% | 100% |  |  |  |  |
| C[C@H]1CC(=O)N2C[C@]34C[C@]5(CC(OCc6ccccc6)N(C)C5=O)C(C)(C)[C@@H]3C[C@]12C(=O)N4C (some centres unmarked) [Compound 9] | 100% | ≥ 80% | 100% |  |  |  |  |
| C[C@H]1CC(=O)N2C[C@]34C[C@@]5(C(=O)N(C)C(=O)C5Cc5ccccc5)C(C)(C)[C@@H]3C[C@]12C(=O)N4C (some centres unmarked) [Compound 10] |  | ≥ 80% |  |  |  |  |  |
| C[C@H]1CCN2C[C@]34C[C@]5(CC(=O)N(C)C5=O)C(C)(C)[C@@H]3C[C@]12C(=O)N4C [Compound B, asperparaline A] |  |  |  |  |  |  | pest or weed control at 20 µg/mL ([1]; 20 ppm acetone solution (30 μl), dry film, larva ticks, 25 C): 100% |
| C[C@H]1CC(=O)N2C[C@]34C[C@]5(CCN(C)C5=O)C(C)(C)[C@@H]3C[C@]12C(=O)N4C [Compound 4] |  |  |  | 100% | ≥ 80% | 100% |  |
| C[C@H]1CC(=O)N2C[C@]34C[C@]5(CC(=O)N(C)C5=O)C(C)(C)[C@@H]3C[C@]12C(=O)N4C [Compound A, 16-keto aspergillimide] |  |  |  |  |  |  | LD50 at 15 days [3]: ≥ 2000 mg/kg; Cumulative number of dead rats 15 days after administration (number of death/total number of rats tested) [4]: 0/3; Death rate after three days (Ctenocephalides felis): 73%; pest or weed control at 20 µg/mL [1]: 100%; Death rate after three days ([5]; dose 2 μg/2 cm^2 on mouse body surface): 60%; Death rate after three days ([5]; dose 6 μg/2 cm^2 on mouse body surface): 93%; Death rate after three days ([5]; dose 10 μg/2 cm^2 on mouse body surface): 100% |
| C[C@H]1CC(=O)N2C[C@@]34C[C@@]5(C(=O)N(C)C=C5C5C[C@]6(C[C@]78CN9C(=O)C[C@H](C)[C@@]9(C[C@H]7C6(C)C)C(=O)N8C)C(=O)N5C)C(C)(C)[C@@H]3C[C@]12C(=O)N4C (some centres unmarked) [Compound 5] |  |  |  |  | ≥ 80% |  |  |
| C[C@H]1CC(=O)N2C[C@]34C[C@]5(C=CN(C)C5=O)C(C)(C)[C@@H]3C[C@]12C(=O)N4C [Compound 3] |  |  |  | 80% | ≥ 80% | 100% |  |
